Assay [1] has as its system Musca domestica. Nature of the assay: Insecticidal activity against 3-day old Musca domestica (house fly) administered topically measured after 24 hr. In kind it is functional.
Assay [2] relates to Musca domestica. Nature of the assay: Insecticidal activity against 3-day old Musca domestica (house fly) administered topically measured after 24 hr relative to (+)-haedoxan A. In kind it is functional.

The structures appear in SMILES notation. Bounds are passed on as bounds.

Consider `COc1cc2c(cc1[C@H]1OC[C@]3(O)[C@@H](Oc4c(OC)cccc4OC)OC[C@H]13)OC(COCc1ccccc1)CO2` (mixture of isomers), for which, in the assay on Musca domestica [1], the LD50 was over 10 µg.

Regarding `COc1cc2c(cc1[C@H]1OC[C@]3(O)[C@@H](Oc4c(OC)cccc4OC)OC[C@H]13)OC(CCl)CO2` (mixture of isomers), in the assay on Musca domestica [2], the Ratio stood at 5e-05. The molecule further gave an LD50 with Musca domestica [1] of 5 µg.

For the molecule `COc1cc2c(cc1[C@H]1OC[C@]3(O)[C@@H](Oc4c(OC)cccc4OC)OC[C@H]13)OCCO2`, the LD50 in the assay on Musca domestica [1] was over 10 µg.

Take `COc1cc2c(cc1[C@H]1OC[C@]3(O)[C@@H](Oc4c(OC)cccc4OC)OC[C@H]13)OC(COC(C)(C)C)CO2` (mixture of isomers): in the assay with Musca domestica [2], the Ratio was 0.0003. Also, the LD50 with Musca domestica [1] was found to be 1 µg.

On to `COC[C@H]1Oc2cc([C@H]3OC[C@]4(O)[C@@H](Oc5c(OC)cc6c(c5OC)OCO6)OC[C@H]34)c(OC)cc2O[C@@H]1c1ccc2c(c1)OCO2` [(+)-HAEDOXAN A], for which, in the assay on Musca domestica [1], the LD50 was determined as 0.00025 µg.

As for `COc1cc2c(cc1[C@H]1OC[C@]3(O)[C@@H](Oc4c(OC)cccc4OC)OC[C@H]13)OCC(c1ccc3c(c1)OCO3)O2` (mixture of isomers), the Ratio in the assay with Musca domestica [2] is 0.0003. In the assay on Musca domestica [1], the LD50 came out at 1 µg.

As for `COCC1COc2cc(OC)c([C@H]3OC[C@]4(O)[C@@H](Oc5c(OC)cccc5OC)OC[C@H]34)cc2O1` (mixture of isomers), the Ratio in the assay with Musca domestica [2] was 0.0003. The same molecule registered an LD50 with Musca domestica [1] of 1 µg.

Consider `COc1cc2c(cc1[C@H]1OC[C@]3(O)[C@@H](Oc4c(OC)cccc4OC)OC[C@H]13)OC(CO)CO2` (mixture of isomers), for which the LD50 in the assay with Musca domestica [1] is over 10 µg.

The values are drawn from ChEMBL document CHEMBL3046473, “Effect on Insecticidal Activity of Substituents at the 1,4-Benzodioxanyl Moiety of Haedoxan” (1992).
